From patent publication US9828351B2, “Enzyme interacting agents” (MONASH UNIVERSITY, priority 2014, dated 2017)
Read-outs that look alike come from different tables or passages of the source.

Assays:
[1] = target: T1, recombinant his tagged human SphK1 (Homo sapiens, UniProt Q9NYA1); assay: SphK1 activity assay (32P-labelled S1P production); type: biochemical; settings: 10 μM compound; % of activity compared to control (DMSO vehicle only)
T1 construct: His tag; made in house; host or cells: insect cells (baculovirus system)
T1 sequence (Q9NYA1 whole entry): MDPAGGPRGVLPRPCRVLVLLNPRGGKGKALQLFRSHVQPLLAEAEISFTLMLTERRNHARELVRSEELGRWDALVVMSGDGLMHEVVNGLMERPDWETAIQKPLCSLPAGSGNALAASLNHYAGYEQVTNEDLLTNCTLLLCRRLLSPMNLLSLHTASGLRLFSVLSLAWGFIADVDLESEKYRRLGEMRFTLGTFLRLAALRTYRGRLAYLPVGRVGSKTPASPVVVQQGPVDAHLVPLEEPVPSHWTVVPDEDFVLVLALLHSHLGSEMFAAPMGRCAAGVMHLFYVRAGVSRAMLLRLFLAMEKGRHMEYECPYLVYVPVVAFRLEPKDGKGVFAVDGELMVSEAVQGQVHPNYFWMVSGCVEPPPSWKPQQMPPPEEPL
Description: (§1) The SphK assays employed, measure SphK activity through the production of ^32P-labelled S1P following the addition of exogenous Sph and [γ^32P] ATP.
(§2) Activities of SphK1 and SphK2 were determined using identical assay conditions with the exception that SphK1 assays used 3 ng/assay recombinant his tagged human SphK1 (made in the lab in a baculovirus system using insect cells), while SphK2 assays used 30 ng/assay recombinant human SphK2 (purchased by Johnson and Johnson).
(§3) Compounds were dissolved in DMSO at 10 mM, the mixture was vortexed (and sonicated if necessary). Stock solutions were kept at 4° C. until used.
(§4) Aliquots were made containing 100 μM drug compound. These aliquots were then diluted in assay buffer: 100 mM tris/HCl pH 7.4, 100 mM NaCl, 1 mM sodium orthovanadate, 10 mM NaF to make up a 10 μM solution.
(§5) Recombinant enzyme was diluted in assay buffer (above) to make up a final concentration of 0.03 ng/μL (SphK1) or 0.33 ng/μL (SphK2).
(§6) 40 μL recombinant enzyme was added to an Eppendorf® Safe-Lock® microcentrifuge tube. This was followed by the addition of drug compound from prepared aliquots, before adding ATP, [γ^32P]ATP and Sph. Note: ATP stock is made up in 1M Tris pH 7.4 and 200 mM MgCl2. This allows ATP to complex with Mg and be available as a substrate.
(§7) The rest of the reaction mixture was then added to the enzyme sample (Table 1). All reactions were performed as triplicates.
(§8) Reaction mixture was prepared with sufficient volume to assay all of the required samples. To do this, each of the volumes shown was multiplied by n+1, where n is the number of samples to be assayed. Assay buffer used is made up of 100 mM tris/HCl pH 7.4, 100 mM NaCl, 1 mM sodium orthovanadate and 10 mM NaF.
(§9) The mixture was then incubated at 37° C. for 20 min (SphK1)/45 min (SphK2).
(§10) To the 100 μL assay mixture, add 270 μl of chloroform/methanol/conc. HCl (100:200:1).
(§11) 20 μL of 5 M KCl was then added to the assay mixture.
(§12) 70 μL of chloroform was added to create phase separation. The solution was vortexed to mix well.
(§13) The solution was then centrifuged for 5 min at 13,000×g to fully separate the phases.
(§14) The upper aqueous/methanol phase was separated by aspiration.
(§15) 50 μL of the remaining lower chloroform phase […] was applied onto the TLC plate by repeatedly spotting a few microliters of liquid (<5 mm diameter circle) between each sample spot with the pipette tip. The liquid was then allowed to absorb into the plate before drying with a stream of air.
(§16) The TLC plate was developed in a glass TLC developing tank with 1-butanol/ethanol/glacial acetic acid/H2O (8:2:1:2) until the mobile phase is within 1 cm of the top of the TLC plate.
(§17) The TLC plate was then exposed to a storage phosphor screen overnight. Storage phosphor screens work by capturing images produced by ionising radiation (e.g. ^32P). The phosphorimager stimulates the screen which uses lasers to convert the latent signal to light. Light is proportional to the amount of radioactivity in the sample. The image is then quantified using standard quantification software (ImageQuant™). Whatman paper with the assay mixture dilutions, was included to assist quantification of the phosphor signal.
(§18) Once the storage phosphor screen was read using the phosphorimager, S1P spots, which have an Rf of 0.7 with the mobile phase employed, were quantified.
(§19) The S1P spot intensity can be converted to the amount of phosphate transferred/min/mg protein.

recombinant human SphK2 = target: T2, recombinant human SphK2 (Homo sapiens, UniProt Q9NRA0); assay: SphK2 activity assay (32P-labelled S1P production); type: biochemical; settings: 10 μM compound, % of activity compared to control (DMSO vehicle only); for remaining activity at 10 µM: read-out: SphK2% actvity at 10 μm
T2 construct: purchased Johnson and Johnson
T2 sequence (Q9NRA0 1-654): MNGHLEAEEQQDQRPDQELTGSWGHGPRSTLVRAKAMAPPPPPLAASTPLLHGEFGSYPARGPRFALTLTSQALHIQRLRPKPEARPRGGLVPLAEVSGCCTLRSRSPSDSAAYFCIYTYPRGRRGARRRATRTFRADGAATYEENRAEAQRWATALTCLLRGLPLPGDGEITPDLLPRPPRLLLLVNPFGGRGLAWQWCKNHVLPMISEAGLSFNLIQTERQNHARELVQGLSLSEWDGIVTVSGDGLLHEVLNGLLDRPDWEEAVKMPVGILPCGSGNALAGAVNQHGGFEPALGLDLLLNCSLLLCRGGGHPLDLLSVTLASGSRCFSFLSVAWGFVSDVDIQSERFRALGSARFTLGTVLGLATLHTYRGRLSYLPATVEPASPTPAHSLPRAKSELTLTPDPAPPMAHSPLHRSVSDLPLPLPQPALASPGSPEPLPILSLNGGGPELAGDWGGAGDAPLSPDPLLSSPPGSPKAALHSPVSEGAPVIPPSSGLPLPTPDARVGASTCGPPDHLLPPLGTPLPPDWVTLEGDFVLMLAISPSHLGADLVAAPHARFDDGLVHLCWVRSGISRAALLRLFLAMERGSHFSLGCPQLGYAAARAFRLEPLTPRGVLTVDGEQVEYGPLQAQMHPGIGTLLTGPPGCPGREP
Description: as §1, §2, §3, §4, §5, §6, §7, §8, §9, §10, §11, §12, §13, §14, §15, §16, §17, §18, §19

[2] = target: T3, Dihydroceramide Desaturase-1 (Des1) (Homo sapiens, UniProt O15121); assay: Dihydroceramide desaturase-1 (Des1) activity by HPLC in intact Jurkat cells labeled with DhCer-C6-NBD; type: cell-based
T3 construct: These modifications included the use of parental Jurkat cells; endogenous in cells; host or cells: parental Jurkat cells
T3 sequence (O15121 1-323): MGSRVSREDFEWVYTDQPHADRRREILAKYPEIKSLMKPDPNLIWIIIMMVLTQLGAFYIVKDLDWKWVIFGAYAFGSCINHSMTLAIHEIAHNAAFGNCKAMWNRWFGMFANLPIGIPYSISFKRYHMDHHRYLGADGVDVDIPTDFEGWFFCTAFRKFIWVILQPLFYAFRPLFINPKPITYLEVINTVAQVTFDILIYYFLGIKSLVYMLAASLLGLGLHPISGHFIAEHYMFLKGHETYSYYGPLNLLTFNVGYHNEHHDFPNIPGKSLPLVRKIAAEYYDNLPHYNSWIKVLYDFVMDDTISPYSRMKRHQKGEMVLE
Description: Measurement of Dihydroceramide Desaturase-1 (Des1) Activity:
These modifications included the use of parental Jurkat cells, 0.5% serum in the culture media, and cell harvesting via centrifugation at 500×g to maximise ceramide extraction. Extracted samples (50 ul) were analysed on a Waters HPLC coupled to a fluorescence detector using a 30 cm C18 reverse-phase column eluted with 1 ml/min 20% H2O and 80% acetonitrile, both with a 0.1% of trifluoroacetic acid.

[3] = tested on: PC3 prostate cancer cell lines; assay: Anticancer activity in PC3 cell line, CellTitre AQueous One cell viability assay; type: cell-based; settings: concentration required to inhibit cell proliferation by 50%, 72 hours
Description: Measurement of Anticancer Activity in PC3 Cell Line Assays
PC3 prostate cancer cell lines were cultured in DMEM (containing 10% fetal calf serum and penicillin-streptomycin).
Before treatment with drug compounds, cells were plated at 2,500 cells/well in 96 well plates and incubated at 37° C. with 5% CO2 in a humidified incubator for 24 hours prior. Cells were only plated in columns 3-10 and rows C—F to ensure uniform humidity and warmth across all wells. The remaining wells were filled with 100 μL of phosphate buffered saline.
Drug stock solutions (50 or 10 mM) were diluted×1000 in media to a final concentration of either 50 μM or 10 μM with a DMSO vehicle concentration of 0.1%.
Cell culture supernatants were aspirated and replaced with drug containing media. Drug treatments were performed in duplicate wells, while potential plate layout-specific variation in cell growth was accounted for by addition of a vehicle control (0.1% DMSO).
Cells were then incubated with drug compounds at 37° C. with 5% CO2 in a humidified incubator for 72 hours prior to assay.
Media was diluted with CellTitre AQueous One Solution (Promega, Australia; Cat # G3580) according to manufacturer's instructions to produce a final concentration of 317 μg/mL.
Cell culture supernatants were then aspirated from wells and replaced with 100 μL of CellTitre solution. Triplicate cell-free control wells containing only CellTitre solution were also included in each assay.
Cells were then incubated at 37° C. with 5% CO2 in a humidified incubator for 1 hour at which time absorbance was read at 490 nm with an EnVision microplate reader (Perkin Elmer, Australia).
When analysing data, background absorbance (taken from cell-free control wells) was subtracted from each reading. […] For each drug concentration the mean (±SEM) is calculated and graphed using GraphPad Prism (version 5). A sigmoidal curved is fitted to the data and used to calculate the IC50 of each compound.

[4] = intact Jurkat cells, read-out: Des 1 IC50

| Molecule | IC50 [2, 4] | activity at 10 µM [1] | remaining activity at 10 µM (recombinant human SphK2) | IC50 ([3]; Homo sapiens, PC-3) | also measured |
| --- | --- | --- | --- | --- | --- |
| 3-(4-((5-(4-Chlorophenyl)-1,3,4-oxadiazol-2-yl)amino)phenyl)-1,2,4-oxadiazol-5(4H)-one [Example E-16] |  |  |  |  | SphK1% activity at 10 μm [1]: 100-150%; SphK2% actvity at 10 μm (recombinant human SphK2): 100-150%; Des 1 IC50 ([2]; intact Jurkat cells): inactive; IC50 [3]: 100 to 1000 nM |
| Oc1ccc(Nc2nnc(-c3ccc(Cl)cc3)o2)cc1 [Example E-1, 5-(4-Chlorophenyl)-N-(4-hydroxyphenyl)-1,3,4-oxadiazol-2-amine] | 100 to 1000 nM |  |  |  |  |
| Oc1ccc(Nc2nnc(-c3ccc(Cl)cc3)s2)cc1 [Example E-2, 4-((5-(4-Chlorophenyl)-1,3,4-thiadiazol-2-yl)amino)phenol] | 1000 to 10000 nM |  |  |  |  |
| Oc1ccc(Nc2noc(-c3ccc(Cl)cc3)n2)cc1 [Example E-3, 4-((5-(4-Chlorophenyl)-1,2,4-oxadiazol-3-yl)amino)phenol] | 1000 to 10000 nM |  |  |  |  |
| Oc1ccc(Nc2nc(-c3ccc(Cl)cc3)no2)cc1 [Example E-4, 4-((3-(4-Chlorophenyl)-1,2,4-oxadiazol-5-yl)amino)phenol] | 1000 to 10000 nM |  |  |  |  |
| O=C(Nc1ccc(O)cc1)c1csc(-c2ccc(Cl)cc2)n1 [Example E-6, 2-(4-Chlorophenyl)-N-(4-hydroxyphenyl)thiazole-4-carboxamide] |  | 20 to 50% | 50 to 80% | > 100000 nM |  |
| N/C(=N\O)c1ccc(Nc2nnc(-c3ccc(Cl)cc3)o2)cc1 [Example E-9, (Z)-4-((5-(4-Chlorophenyl)-1,3,4-oxadiazol-2-yl)amino)-N′-hydroxybenzimidamide] | 1000 to 10000 nM |  |  |  |  |
| Cc1nc(-c2ccc(Nc3nnc(-c4ccc(Cl)cc4)o3)cc2)no1 [Example E-10, 5-(4-Chlorophenyl)-N-(4-(5-methyl-1,2,4-oxadiazol-3-yl)phenyl)-1,3,4-oxadiazol-2-amine] |  | 80 to 100% | 50 to 80% | > 100000 nM |  |
| O=C(Nc1ccc(-c2nnc(-c3ccc(Cl)cc3)o2)cc1)[C@H]1NCC[C@@H]1O [Example E-12, (2S,3S)-2-((4-(5-(4-chlorophenyl)-1,3,4-oxadiazol-2-yl)phenyl)carbamoyl)-3-hydroxypyrrolidin-1-ium chloride] |  | 50 to 80% | 20 to 50% | > 100000 nM |  |
| N=C(N)c1ccc(-c2nnc(-c3ccccc3)o2)cc1 [Example E-17, Amino(4-(5-phenyl-1,3,4-oxadiazol-2-yl)phenyl)methaniminium chloride] |  | 200 to 300% | 80 to 100% | > 100000 nM |  |
| O=C(NCc1ccc(-c2nnc(-c3ccc(Cl)cc3)o2)cc1)[C@H]1NCC[C@@H]1O [Example E-18, (2S,3S)-2-((4-(5-(4-chlorophenyl)-1,3,4-oxadiazol-2-yl)benzyl)carbamoyl)-3-hydroxypyrrolidin-1-ium chloride] |  | 50 to 80% | 80 to 100% | > 100000 nM |  |
| N=C(N)c1ccc(Nc2nnc(-c3ccccc3)o2)cc1 [Example E-20, Amino(4-((5-phenyl-1,3,4-oxadiazol-2-yl)amino)phenyl)methaniminium chloride] |  | 80 to 100% | 20 to 50% | > 100000 nM |  |
| Cl.N=C(N)c1ccc(Nc2nnc(-c3ccc(Cl)cc3)o2)cc1 [Example E-23, Amino(4-((5-(4-chlorophenyl)-1,3,4-oxadiazol-2-yl)amino)phenyl)methaniminium chloride] |  |  |  |  | Des 1 IC50 ([2]; intact Jurkat cells): inactive |
| Oc1ccc(Nc2nnc(-c3ccc(C(F)(F)F)cc3)o2)cc1 [Example E-26, 4-((5-(4-(Trifluoromethyl)phenyl)-1,3,4-oxadiazol-2-yl)amino)phenol] |  |  |  |  | IC50 [2]: 100 to 1000 nM |

The next lines start with results.

| IC50 [2, 4] | activity at 10 µM [1] | remaining activity at 10 µM (recombinant human SphK2) | IC50 ([3]; Homo sapiens, PC-3) | Molecule | also measured |
| --- | --- | --- | --- | --- | --- |
| 1000 to 10000 nM |  |  |  | Oc1ccc(Nc2nnc(-c3ccc(I)cc3)o2)cc1 [Example E-24, 4-((5-(4-Iodophenyl)-1,3,4-oxadiazol-2-yl)amino)phenol] |  |
|  | 1 to 5% | 20 to 50% | > 100000 nM | Clc1ccc(-c2nnc(NCc3ccncc3)o2)cc1 [Example E-30, 5-(4-Chlorophenyl)-N-(pyridin-4-ylmethyl)-1,3,4-oxadiazol-2-amine] |  |
| 100 to 1000 nM |  |  |  | Oc1ccc(Nc2nsc(-c3ccc(Cl)cc3)n2)cc1 [Example E-31, 4-((5-(4-chlorophenyl)-1,2,4-thiadiazol-3-yl)amino)phenol] |  |
| 100 to 1000 nM |  |  |  | Oc1ccc(Nc2nc(-c3ccc(Cl)cc3)ns2)cc1 [Example E-32, 4-((3-(4-chlorophenyl)-1,2,4-thiadiazol-5-yl)amino)phenol] |  |
